Measurements: patent US10710994B2, “Oxadiazole transient receptor potential channel inhibitors” (Genentech, Inc., priority 2018, dated 2020)
Where a name gives a salt, the structure may show the parent alone. Read-outs that look alike come from different tables or passages of the source.

Biological target: human TRPA1 channel (Homo sapiens (Human), UniProt O75762)
Test: hTRPA1 CHO Ca2+ FLIPR Tetra assay: block of cinnamaldehyde induced calcium influx
Type: cell-based
Conditions: CHO cells expressing TRPA1, Hill coefficient fixed to 1.5
Description: CHO cells expressing TRPA1 were plated into 384-well plates, incubated overnight at 37° C., and loaded with BD calcium indicator dye for 1 hr at 37° C. followed by 15 minutes at room temperature. The assay buffer was Hank's Balanced Salt Solution (HBSS) containing 20 mM HEPES (pH readjusted to 7.4) along with 0.02% BSA.
Following dye load and plate cool down, compounds were added to the cells using FLIPR Tetra. Plates were then incubated with compounds for 10 minutes or 90 minutes at room temperature prior to adding agonist. Following this incubation, about an EC80 concentration of cinnamaldehyde […] was added to active the channels and block of cinnamaldehyde induced calcium influx was measured.
Fixing the Hill coefficient will generally reduce variability of the IC50 determination. The IC50 results were individually examined to make sure the MIN and MAX points were set correctly prior to validation of the results.

[1] = hTRPA1 IC50 90 min, 90 minutes incubation with compound before cinnamaldehyde (about EC80)
[2] = read-out: hTRPA1 IC50 90 min, 90 minutes incubation with compound before cinnamaldehyde (about EC80)
[3] = read-out: hTRPA1 IC50 10 min, 10 minutes incubation with compound before cinnamaldehyde (about EC80)
[4] = hTRPA1 IC50 10 min, 10 minutes incubation with compound before cinnamaldehyde (about EC80)

Chain of human TRPA1 channel (O75762 whole entry): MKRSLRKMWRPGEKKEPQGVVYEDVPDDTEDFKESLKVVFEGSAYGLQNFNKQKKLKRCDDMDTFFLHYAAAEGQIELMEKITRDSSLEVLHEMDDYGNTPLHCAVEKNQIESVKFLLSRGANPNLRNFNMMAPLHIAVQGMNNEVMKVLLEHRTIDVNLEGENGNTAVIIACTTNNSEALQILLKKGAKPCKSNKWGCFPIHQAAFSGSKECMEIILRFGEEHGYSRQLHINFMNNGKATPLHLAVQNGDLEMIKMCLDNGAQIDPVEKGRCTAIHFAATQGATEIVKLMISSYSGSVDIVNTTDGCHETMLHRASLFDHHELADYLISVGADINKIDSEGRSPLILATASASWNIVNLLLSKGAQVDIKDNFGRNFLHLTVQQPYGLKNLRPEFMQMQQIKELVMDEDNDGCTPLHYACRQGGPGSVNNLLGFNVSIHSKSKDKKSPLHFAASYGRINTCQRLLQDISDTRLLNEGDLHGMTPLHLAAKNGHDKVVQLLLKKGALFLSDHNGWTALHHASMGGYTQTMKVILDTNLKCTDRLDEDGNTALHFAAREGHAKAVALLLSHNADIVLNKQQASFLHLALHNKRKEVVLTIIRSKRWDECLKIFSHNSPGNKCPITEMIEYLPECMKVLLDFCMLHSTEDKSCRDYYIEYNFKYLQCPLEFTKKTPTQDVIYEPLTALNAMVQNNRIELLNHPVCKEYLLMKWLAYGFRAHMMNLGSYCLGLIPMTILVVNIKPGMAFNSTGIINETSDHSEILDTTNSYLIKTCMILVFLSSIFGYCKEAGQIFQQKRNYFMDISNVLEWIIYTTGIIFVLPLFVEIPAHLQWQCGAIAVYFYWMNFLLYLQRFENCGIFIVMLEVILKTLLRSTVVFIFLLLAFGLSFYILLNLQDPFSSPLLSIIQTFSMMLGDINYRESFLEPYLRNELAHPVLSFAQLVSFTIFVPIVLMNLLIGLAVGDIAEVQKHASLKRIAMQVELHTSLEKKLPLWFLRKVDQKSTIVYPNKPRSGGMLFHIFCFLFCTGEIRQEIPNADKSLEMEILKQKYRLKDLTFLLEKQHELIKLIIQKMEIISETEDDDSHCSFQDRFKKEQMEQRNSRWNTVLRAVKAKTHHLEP

| IC50 [1] [nM] | IC50 [2] [nM] | IC50 [3] [nM] | IC50 [4] [nM] | Compound |
| --- | --- | --- | --- | --- |
| 170 | – | – | – | Cc1nc(N2CCN(C)CC2)n2ncn(Cc3nc([C@@H]4CO[C@@H](c5ccc(Cl)cc5)C4)no3)c(=O)c12 (racemic) [Example 92, 5-methyl-7-(4-methylpiperazin-1-yl)-3-[[3-[rac-(3R,5R)-5-(4-chlorophenyl)tetrahydro-furan-3-yl]-1,2,4-oxadiazol-5-yl]methyl]imidazo[5,1-f][1,2,4]triazin-4-one] |
| – | 2.4 | – | – | O=c1c2cccc(=O)n2cnn1Cc1nc([C@@H]2CO[C@@H](c3ccc(Cl)cc3)C2)no1 [Example 82, 2-((3-((3R,5R)-5-(4-chlorophenyl)tetrahydro-furan-3-yl)-1,2,4-oxadiazol-5-yl)methyl)-2H-pyrido [1,2-d][1,2,4]triazine-1,6-dione] |
| – | 59 | 127 | – | Cn1cnc2ncn(Cc3nc([C@@H]4CO[C@@H](c5ccccc5F)C4)no3)c(=O)c21 [Example 15, 1-((3-((3R,5R)-5-(2-fluorophenyl)tetrahydro-furan-3-yl)-1,2,4-oxadiazol-5-yl)methyl)-7-methyl-1,7-dihydro-6H-purin-6-one] |
| – | 92 | – | – | Cc1nc(NC2CNC2)n2ncn(Cc3nc([C@@H]4CO[C@@H](c5ccc(Cl)cc5)C4)no3)c(=O)c12 [Example 79] |
| – | 34 | 85.8 | – | Cc1nc2[nH]c(=O)n(C)c2c(=O)n1Cc1nc([C@@H]2CO[C@@H](c3ccc(Cl)cc3)C2)no1 [Example 111, 1-((3-((3R,5R)-5-(4-chlorophenyl)tetrahydro-furan-3-yl)-1,2,4-oxadiazol-5-yl)methyl)-2,7-dimethyl-7,9-dihydro-1H-purine-6,8-dione] |
| – | 34 | 59.5 | – | Cn1cnc2ncn(Cc3nc([C@@H]4CO[C@@H](c5ccc(F)cc5)C4)no3)c2c1=O [Example 69, 7-((3-((3R,5R)-5-(4-fluorophenyl)tetrahydro-furan-3-yl)-1,2,4-oxadiazol-5-yl)methyl)-1-methyl-1,7-dihydro-6H-purin-6-one] |
| – | 3.6 | 7.05 | – | Cc1ccnc2ncn(Cc3nc([C@@H]4CO[C@@H](c5ccc(F)cc5)C4)no3)c(=O)c12 [Example 20, 3-((3-((3R,5R)-5-(4-fluorophenyl)tetrahydro-furan-3-yl)-1,2,4-oxadiazol-5-yl)methyl)-5-methylpyrido[2,3-d]pyrimidin-4(3H)-one] |
| – | 12 | 15.6 | – | Nc1ccc2c(=O)n(Cc3nc([C@@H]4CO[C@@H](c5ccc(F)cc5)C4)no3)cnc2n1 [Example 60, 7-amino-3-((3-((3R,5R)-5-(4-fluorophenyl)tetrahydrofuran-3-yl)-1,2,4-oxadiazol-5-yl)methyl)pyrido[2,3-d] pyrimidin-4(3H)-one] |
| – | 2.7 | 4.9 | – | Cn1nnc2ncn(Cc3nc([C@@H]4CO[C@@H](c5ccc(Cl)cc5)C4)no3)c(=O)c21 [Example 16, 6-((3-((3R,5R)-5-(4-chlorophenyl)tetra-hydrofuran-3-yl)-1,2,4-oxadiazol-5-yl)methyl)-1-methyl-1,6-dihydro-7H-[1,2,3]triazolo[4,5-d]pyrimidin-7-one] |
| – | 24 | 45.7 | – | Cn1cnc2c(C#N)nn(Cc3nc([C@@H]4CO[C@@H](c5ccc(Cl)cc5)C4)no3)c2c1=O [Example 23, 1-((3-((3R,5R)-5-(4-chlorophenyl)tetrahydro-furan-3-yl)-1,2,4-oxadiazol-5-yl)methyl)-6-methyl-7-oxo-6,7-dihydro-1H-pyrazolo[4,3-d]pyrimidine-3-carbonitrile] |
| – | 7.5 | 19.5 | – | Cc1cnn2ncn(Cc3nc([C@@H]4CO[C@@H](c5ccc6cn[nH]c6c5)C4)no3)c(=O)c12 [Example 139, 3-((3-((3R,5R)-5-(1H-indazol-6-yl)tetrahydrofuran-3-yl)-1,2,4-oxadiazol-5-yl)methyl)-5-methylpyrazolo[5,1-f] [1,2,4]triazin-4(3H)-one] |
| – | 7.8 | 19.3 | – | O=c1c2ccncc2ncn1Cc1nc([C@@H]2CO[C@@H](c3ccc(Cl)cc3)C2)no1 [Example 45, 3-((3-((3R,5R)-5-(4-chlorophenyl)tetrahydro-furan-3-yl)-1,2,4-oxadiazol-5-yl)methyl)pyrido[3,4-d] pyrimidin-4(3H)-one] |
| – | 15 | 83.3 | – | Nc1nc(=O)c2cccnc2n1Cc1nc([C@@H]2CO[C@@H](c3ccc(F)cc3)C2)no1 [Example 130, 2-amino-1-((3-((3R,5R)-5-(4-fluorophenyl)tetra-hydrofuran-3-yl)-1,2,4-oxadiazol-5-yl)methyl) pyrido[2,3-d]pyrimidin-4(1H)-one] |
| 59 | – | – | 42 | Cc1nc(N(C)C)n2ncn(Cc3nc([C@@H]4CO[C@@H](c5ccc(Cl)cc5)C4)no3)c(=O)c12 (racemic) [Example 105, 7-(dimethylamino)-5-methyl-3-[[3-[rac-(3R,5R)-5-(4-chlorophenyl)tetrahydro-furan-3-yl]-1,2,4-oxadiazol-5-yl]methyl]imidazo[5,1-f][1,2,4]triazin-4-one] |
| – | 75 | – | – | Cc1nc(N)n2ncn(Cc3nc([C@@H]4CO[C@@H](c5ccc(F)cc5)C4)no3)c(=O)c12 [Example 81, 7-amino-3-((3-((3R,5R)-5-(4-fluorophenyl)tetrahydro-furan-3-yl)-1,2,4-oxadiazol-5-yl)methyl)-5-methyl-imidazo[5,1-f][1,2,4]triazin-4(3H)-one] |
| – | 3.9 | 6.32 | – | Nc1ccc2c(=O)n(Cc3nc([C@@H]4CO[C@@H](c5ccc(Cl)cc5)C4)no3)cnc2n1 [Example 28, 7-amino-3-((3-((3R,5R)-5-(4-chlorophenyl)tetrahydro-furan-3-yl)-1,2,4-oxadiazol-5-yl)methyl)pyrido[2,3-d]pyrimidin-4(3H)-one] |
| – | 2.8 | 9.26 | – | Cc1cc(=O)nc2ccn(Cc3nc([C@@H]4CO[C@@H](c5ccc(Cl)cc5)C4)no3)c(=O)n12 [Example 63] |
| – | 97 | 2600 | – | O=c1c2c(cnn1Cc1nc([C@@H]3CO[C@@H](c4ccc(Cl)cc4)C3)no1)CNCC2 [Example 146, 2-((3-((3R,5R)-5-(4-chlorophenyl)tetrahydro-furan-3-yl)-1,2,4-oxadiazol-5-yl)methyl)-5,6,7,8-tetrahydropyrido[3,4-d] pyridazin-1(2H)-one hydrochloride] |
| 12 | – | – | – | O=c1c2cccc(=O)n2ccn1Cc1nc([C@@H]2CO[C@@H](c3ccc(F)cc3)C2)no1 (racemic) [Example 94, 2-[[3-[rac-(3R,5R)-5-(4-fluorophenyl)tetrahydro-furan-3-yl]-1,2,4-oxadiazol-5-yl]methyl]pyrido[1,2-a] pyrazine-1,6-dione] |
| 6.2 | – | – | 43.1 | Cc1nc2nc(N)n(Cc3nc([C@@H]4CO[C@@H](c5ccc(Cl)cc5)C4)no3)c(=O)c2n1C (racemic) [Example 152, 2-amino-7,8-dimethyl-1-[[3-[rac-(3R,5R)-5-(4-chlorophenyl)tetrahydro-furan-3-yl]-1,2,4-oxadiazol-5-yl]methyl]purin-6-one] |
| – | 52 | 108 | – | Cn1cnc2ncn(Cc3nc([C@@H]4CO[C@@H](c5ccc(C#N)cc5)C4)no3)c(=O)c21 [Example 37, 4-((2R,4R)-4-(5-((7-methyl-6-oxo-6,7-dihydro-1H-purin-1-yl)methyl)-1,2,4-oxadiazol-3-yl)tetrahydrofuran-2-yl)benzonitrile] |
| – | 1.7 | 3.19 | – | Cn1ncc2nc(N)n(Cc3nc([C@@H]4CO[C@@H](c5ccc(Cl)cc5)C4)no3)c(=O)c21 [Example 150, 5-amino-6-((3-((3R,5R)-5-(4-chlorophenyl)tetrahydro-furan-3-yl)-1,2,4-oxadiazol-5-yl)methyl)-1-methyl-1,6-dihydro-7H-pyrazolo[4,3-d] pyrimidin-7-one] |
| – | 67 | 98.5 | – | Cn1cnc2ncn(Cc3nc([C@@H]4CO[C@@H](c5ccc(OC(F)(F)F)cc5)C4)no3)c(=O)c21 [Example 21, 7-methyl-1-((3-((3R,5R)-5-(4-(trifluoromethoxy)phenyl)tetrahydro-furan-3-yl)-1,2,4-oxadiazol-5-yl)methyl)-1,7-dihydro-6H-purin-6-one] |
| 33 | – | – | – | Cc1nn(C)c2ncn(Cc3nc([C@@H]4CO[C@@H](c5ccc(Cl)cc5)C4)no3)c(=O)c12 (racemic) [Example 96, 1,3-dimethyl-5-[[3-[rac-(3R,5R)-5-(4-chlorophenyl)tetrahydro-furan-3-yl]-1,2,4-oxadiazol-5-yl]methyl] pyrazolo[3,4-d]pyrimidin-4-one] |
| – | 2.4 | 4.09 | – | Cn1cnc2ncn(Cc3nc([C@@H]4CO[C@@H](c5ccc6ccccc6c5)C4)no3)c(=O)c21 [Example 33, 7-methyl-1-((3-((3R,5R)-5-(naphthalen-2-yl)tetrahydrofuran-3-yl)-1,2,4-oxadiazol-5-yl)methyl)-1,7-dihydro-6H-purin-6-one] |

| Compound | IC50 [1] [nM] | IC50 [2] [nM] | IC50 [3] [nM] | IC50 [4] [nM] |
| --- | --- | --- | --- | --- |
| [2H]c1nc2nc(C)n(Cc3nc([C@@H]4CO[C@@H](c5ccc(Cl)cc5)C4)no3)c(=O)c2n1C [Example 110, 1-((3-((3R,5R)-5-(4-chlorophenyl)tetrahydro-furan-3-yl)-1,2,4-oxadiazol-5-yl)methyl)-2,7-dimethyl-1,7-dihydro-6H-purin-6-one-8-d] | 3.9 | – | – | 9.32 |
